The values that follow come from publication PMC8306578, “[^68Ga]Ga-DFO-c(RGDyK): Synthesis and Evaluation of Its Potential for Tumor Imaging in Mice” (International Journal of Molecular Sciences, 2021).

Series [1] is classed as physicochemical. Conditions: pH 7.4. How it is done:
Aliquots of 50 μL were added to 450 μL PBS and 500 μL octanol, and the mixture was vigorously vortexed for 20 min at 1500 rpm. The aqueous and organic solvents were separated by centrifugation (2 min at 2000× g), and 50 μL aliquots of both layers were collected and measured in a gamma counter (PerkinElmer, Waltham, MA, USA). Log p values were calculated from the obtained data in Microsoft Office Excel 2010 (Microsoft, Redmond WA, USA) (mean of n = 6).

The test system of series [2] is U-87 MG cells. Kind of series: Cell uptake assay in U-87 MG cells. Type of series: cell-based, human. Particulars: 7 nM tracer, 500-fold excess (3.5 µM) inhibitor, 30-90 min, 37 °C. The procedure:
(§1) Human glioblastoma multiforme U-87 MG cells (ATCC, Manassas, VA, USA) were cultured in Dulbecco’s Modified Eagle Medium (Merck, Darmstadt, Germany) supplemented with 10% fetal bovine serum, 0.1 mM non-essential amino acids, and 1.0 mM sodium pyruvate at 37 °C in a 5% carbon dioxide humidified incubator. Human melanoma cell lines M21 (fluorescence-activated cell sorting selected clone, which stably express αvβ3 integrin; αvβ3 integrin-positive) and M21-L (αvβ3 integrin-negative) originated from prof. Cheresh, Departments of Immunology and Vascular Biology, The Scripps Research Institute, La Jolla, CA, USA and were a kind gift of prof. Decristoforo, Department of Nuclear Medicine, Medical University Innsbruck, Austria. Both M21 and M21-L cells were cultured in Dulbecco’s Modified Eagle Medium (Merck, Darmstadt, Germany) supplemented with 10% fetal bovine serum. All the cells were subcultured and used for experiments at a confluency of 70–90%. Cell uptake assays were performed in 24-well plates cell at cellular confluency of 70–90%. […] Afterwards, the 24-well plates were rinsed with PBS and the cells were lysed by 0.1 M NaOH and measured for radioactivity in the gamma counter. The uptake of [^68Ga]Ga-DFO-c(RGDyK) was calculated as the mean of the percentage of the applied dose ± standard deviation.

Series [3] concerns M21 cells. Description: Cell uptake assay in M21 (αvβ3-positive) cells. Particulars: 7 nM tracer, 500-fold excess (3.5 µM) inhibitor, 60 min, 37 °C. The series is classed as cell-based, human. The procedure: as §1
The conditions of series [4]: mouse, in vivo. How it is done:
The animal studies were performed using female 8–10-week-old Balb/c and athymic Balb/c nude mice (Envigo, Horst, The Netherlands). The animals were acclimatized to laboratory conditions for 1 week prior to experimental use and housed in a specific-pathogen-free animal facility with free access to animal chow and water. During the experiments, general health and body weight of the animals were monitored. The number of animals was reduced as much as possible (n = 3 per group and time point) for all in vivo experiments. The tracer injection as well as small animal imaging was carried out under 2% isoflurane anesthesia (FORANE, Abbott Laboratories, Abbott Park, IL, USA) to minimize animal suffering and to prevent animal motion. […] The animals were sacrificed by cervical dislocation at 30 and 90 min post-injection (p.i.). Organs and tissues of interest (blood, spleen, pancreas, stomach, intestines, kidneys, liver, heart, lung, muscle, bone, and tumor) were collected, weighed, and measured in the gamma counter. The results were expressed as percentage of injected dose per gram organ (% ID/g).

On the set-up of series [5]: dose or concentration left out as unconfirmed. Conditions: mouse, in vivo. How it is done:
(§2) The animal studies were performed using female 8–10-week-old Balb/c and athymic Balb/c nude mice (Envigo, Horst, The Netherlands). The animals were acclimatized to laboratory conditions for 1 week prior to experimental use and housed in a specific-pathogen-free animal facility with free access to animal chow and water. During the experiments, general health and body weight of the animals were monitored. The number of animals was reduced as much as possible (n = 3 per group and time point) for all in vivo experiments. […]
(§3) For animal tumor models, athymic Balb/c nude mice were subcutaneously injected in the right flank with 5 × 10^6 U-87 MG cells mixed with Matrigel Matrix (Corning, NY, USA) at a 1:1 ratio or in the right and left flank with 5 × 10^6 M21 and M21-L cells. Tumor growth was continuously monitored by caliperation. […]
The animals were sacrificed by cervical dislocation at 30 and 90 min post-injection (p.i.). Organs and tissues of interest (blood, spleen, pancreas, stomach, intestines, kidneys, liver, heart, lung, muscle, bone, and tumor) were collected, weighed, and measured in the gamma counter. The results were expressed as percentage of injected dose per gram organ (% ID/g).

Series [6] relates to U-87 MG tumor. Description: Static PET/CT imaging in U-87 MG tumor-bearing Balb/c nude mice. Particulars: U-87 MG tumor mice, 30 and 90 min p.i. Type of series: in vivo, mouse. How it is done: as §2, §3
(§4) PET/CT imaging of the experimental animals was performed with an Albira PET/SPECT/CT small animal imaging system (Bruker Biospin Corporation, Woodbridge, CT, USA). […] After reconstruction, the acquired data was viewed and analyzed with the appropriate software (PMOD software, PMOD Technologies Ltd., Zurich, Switzerland and VolView software, Kitware, Clifton Park, NY, USA).

The subject of series [7] is M21 tumor. Description: Static PET/CT imaging in M21 (αvβ3-positive) xenografted Balb/c nude mice. The series is classed as in vivo, mouse. Particulars: αvβ3 integrin-positive (M21) tumor tissue, 30 and 90 min p.i. How it is done:
as §2, §3, §4

The test system of series [8] is M21-L tumor. Kind of series: Static PET/CT imaging in M21-L (αvβ3-negative) xenografted Balb/c nude mice. The series is classed as in vivo, mouse. Conditions: αvβ3 integrin-negative (M21-L) tumor tissue, 30 and 90 min p.i. How it is done: as §2, §3, §4

By logP is commonly meant a log measure of how a compound divides between an organic and an aqueous phase. What is called tissue uptake is the share of the injected amount in each gram of the tissue.

Read-outs that look alike come from different tables or passages of the source.

Regarding `CC(=O)N(O)CCCCCNC(=O)CCC(=O)N(O)CCCCCNC(=O)CCC(=O)N(O)CCCCCNC(=S)Nc1ccc(NC(=S)NCCCC[C@@H]2NC(=O)[C@@H](Cc3ccc(O)cc3)NC(=O)[C@H](CC(=O)O)NC(=O)CNC(=O)[C@H](CCCNC(=N)N)NC2=O)cc1` [[^68Ga]Ga-DFO-c(RGDyK), metal not drawn], the logP in series [1] is -2.01 ± 0.08. The “Blocking of cell uptake by excess cold NODAGA-c(RGDyK)” value in series [2] is “could be blocked with NODAGA-c(RGDyK) by about half”; in series [3], “could only be blocked for the αvβ3-positive cells (M21)”. Further, the tissue uptake at 1.5 h in series [4] (Activity concentration in intestines) is 1.99 ± 0.01 %ID/g; in series [4] (Activity concentration in kidneys), 5.31 ± 0.12 %ID/g; in series [4] (Activity concentration in stomach), 1.78 ± 0.05 %ID/g; in series [5], 1.54 ± 0.56 %ID/g. This compound also registered a tissue uptake at 0.5 h in series [5] of 3.03 ± 0.62 %ID/g. Moreover, in series [6], the PET/CT tumor visualization result is on record as “clearly visualizing the tumor”. The PET/CT tumor uptake entry in series [7] is “specific uptake of the radiotracer”; in series [8] it was “no uptake was observed”.
